Results from US20250041459A1, “Polyethylene Glycol Modified Zwitterionic Fluorescent Probe and Application Thereof, and Preparation” (Beijing Sonophotonano Medical Technology Company Limited, priority 2022, published 2025).

Experiments:
[1] = test system: MB-49 human bladder cancer lung metastasis; conditions: 2 nmol intravenous, 4 h
Excerpt: (§1) This test example studied the imaging manifestations of PEG-Cy7-RP-RGD in different tumor models. A U87 human glioma mouse in-situ model, an SKOV3 human ovarian cancer in-situ model, a 4T1 mouse breast cancer lung metastasis model and an MB-49 human bladder cancer lung metastasis model were respectively set up.
(§2) A 4T1 mouse breast cancer lung metastasis model and an MB-49 mouse bladder cancer lung metastasis model were respectively set up in FIG. 11.

[2] = test system: 4T1 mouse breast cancer lung metastasis; conditions: 2 nmol intravenous, 4 h
Excerpt: as §1, §2

[3] = test system: SKOV3 human ovarian cancer; conditions: 2 nmol intravenous, 4 h
Excerpt: as §1
A […] human ovarian cancer mouse in-situ tumor model was set up in FIG. 10.

[4] = test system: MB-49 human bladder cancer cells; assay: Fluorescence imaging in mouse subcutaneous tumor model of MB-49 bladder cancer cells; type: in vivo, Balb/c nude mouse
Method: A mouse subcutaneous tumor model of human bladder cancer cells was set up by injecting MB-49 human bladder cancer cells in Balb/c nude mouse legs. After the tumor grew to a proper size, four fluorescent probes were respectively intravenously injected (2 nmol of probe was injected for each mouse), and then fluorescence imaging was performed on mice at different time points after injection.

[5] = test system: U87 human glioma; conditions: 2 nmol intravenous, 4 h
Excerpt: as §1

[6] = Absorption and fluorescence spectra of probes (optical properties); type: physicochemical; conditions: for Fluorescence quantum yield: ICG in DMSO as standard
[7] = target: T1, PSMA (Homo sapiens, UniProt Q04609); assay: PSMA-targeted prostate cancer fluorescence imaging; conditions: in vivo
T1 construct: highly expressed PSMA in prostate cancer; endogenous in cells
Excerpt: (§3) The inventors conducted the above test to the fluorescent probes prepared in examples 2-5.

[8] = test system: tumors; assay: The above tests repeated on probes of examples 2-5 (targeted fluorescence imaging of tumors); conditions: in vivo
Excerpt: as §3

T1 sequence (Q04609 whole entry, species assumed): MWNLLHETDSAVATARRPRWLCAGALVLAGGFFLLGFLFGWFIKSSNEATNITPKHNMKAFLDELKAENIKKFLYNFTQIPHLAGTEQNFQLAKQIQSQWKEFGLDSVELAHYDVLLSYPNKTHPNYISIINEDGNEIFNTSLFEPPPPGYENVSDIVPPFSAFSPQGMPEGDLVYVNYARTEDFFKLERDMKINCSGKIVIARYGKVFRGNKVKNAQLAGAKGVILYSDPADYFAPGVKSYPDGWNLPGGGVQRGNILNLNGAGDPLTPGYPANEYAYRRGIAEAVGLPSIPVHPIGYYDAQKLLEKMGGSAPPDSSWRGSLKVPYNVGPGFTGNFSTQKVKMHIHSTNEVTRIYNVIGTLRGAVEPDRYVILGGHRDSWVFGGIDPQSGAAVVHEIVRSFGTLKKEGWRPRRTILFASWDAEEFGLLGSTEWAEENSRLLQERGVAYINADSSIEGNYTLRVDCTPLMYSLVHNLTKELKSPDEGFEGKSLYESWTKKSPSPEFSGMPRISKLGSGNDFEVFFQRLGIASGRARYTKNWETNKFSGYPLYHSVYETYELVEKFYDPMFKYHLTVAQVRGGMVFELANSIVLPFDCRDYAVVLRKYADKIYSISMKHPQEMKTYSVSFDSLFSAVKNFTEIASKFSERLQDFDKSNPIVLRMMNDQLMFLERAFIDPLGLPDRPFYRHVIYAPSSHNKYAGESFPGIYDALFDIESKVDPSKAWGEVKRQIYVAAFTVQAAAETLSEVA

COCCOCCOCCN1/C(=C/C=C2\CCCC(/C=C/C3=[N+](CCOCCOCCOC)c4ccc(S(=O)(=O)O)cc4C3(C)C)=C2Oc2ccc(CCC(=O)N[C@@H](CCCNC(=N)N)C(=O)NCCOCCOCCOCCOCCC(=O)NCCCCC3NC(=O)[C@@H](Cc4ccc(O)cc4)NC(=O)[C@H](CC(=O)O)NC(=O)CNC(=O)[C@H](CCCNC(=N)N)NC3=O)cc2)C(C)(C)c2cc(S(=O)(=O)[O-])ccc21 (stereo partly drawn) [PEG-Cy7-RP-RGD]
Fluorescence signal at tumor site [1]: strong fluorescence signal | Signal-to-noise ratio of small lung metastasis lesion [1]: about 4 | Fluorescence signal at tumor site [2]: strong fluorescence signal | Signal-to-noise ratio of small lung metastasis lesion [2]: about 4 | Fluorescence signal at tumor site [3]: strong fluorescence signal | Signal-to-noise ratio at ovarian tumor site [3]: about 4.0 | TBR (tumor signal-to-noise ratio) relative to the other three probes ([4]; 24 h after intravenous injection, 2 nmol per mouse): twice or more | Tissue background (non-specific) signal in normal tissue ([4]; in vivo imaging): ultra-low | Tumor signal-to-noise ratio (TBR), compared with the other probes ([4]; intravenous, 2 nmol per mouse): obviously improved | Fluorescence signal at tumor site [5]: strong fluorescence signal | Signal-to-noise ratio at tumor site ([5]; head skin cut): up to 6.3 | Absorption peak ([6]; 100% Fetal bovine serum): 777 nm | Emission peak ([6]; 100% Fetal bovine serum): 795 nm | Luminance (molar extinction coefficient × fluorescence quantum yield) ([6]; 100% Fetal bovine serum): 20700 | Molar extinction coefficient ([6]; 100% Fetal bovine serum): 184000 M⁻¹ cm⁻¹ | Stokes shift ([6]; 100% Fetal bovine serum): 18 nm | Fluorescence quantum yield ([6]; 100% Fetal bovine serum): 11.2% | Change of fluorescence property in 100% fetal bovine serum versus PBS ([6]; 100% fetal bovine serum vs PBS): did not obviously change | Absorption peak ([6]; PBS buffer (pH = 7.4)): 776 nm | Emission peak ([6]; PBS buffer (pH = 7.4)): 794 nm | Luminance (molar extinction coefficient × fluorescence quantum yield) ([6]; PBS buffer (pH = 7.4)): 19300 | Molar extinction coefficient ([6]; PBS buffer (pH = 7.4)): 174000 M⁻¹ cm⁻¹ | Stokes shift ([6]; PBS buffer (pH = 7.4)): 18 nm | Fluorescence quantum yield ([6]; PBS buffer (pH = 7.4)): 11.1%

COCCOCCOCCN1/C(=C/C=C2\CCCC(/C=C/C3=[N+](CCOCCOCCOC)c4ccc(S(=O)(=O)O)cc4C3(C)C)=C2Oc2ccc(CCC(=O)O)cc2)C(C)(C)c2cc(S(=O)(=O)[O-])ccc21 [PEG-Cy7-COOH]
Fluorescent brightness compared with PEG-Cy7-Cl ([6]; PBS): doubled | Increase of fluorescence quantum yield compared with PEG-Cy7-Cl ([6]; PBS): 3.7% | Absorption peak ([6]; PBS buffer (pH = 7.4)): 772 nm | Emission peak ([6]; PBS buffer (pH = 7.4)): 794 nm | Luminance (molar extinction coefficient × fluorescence quantum yield) ([6]; PBS buffer (pH = 7.4)): 19800 | Molar extinction coefficient ([6]; PBS buffer (pH = 7.4)): 228000 M⁻¹ cm⁻¹ | Stokes shift ([6]; PBS buffer (pH = 7.4)): 22 nm | Fluorescence quantum yield ([6]; PBS buffer (pH = 7.4)): 8.7%

COCCOCCOCCN1/C(=C/C=C2\CCCC(/C=C/C3=[N+](CCOCCOCCOC)c4ccc(S(=O)(=O)O)cc4C3(C)C)=C2Oc2ccc(CCC(=O)N[C@@H](CCCNC(=N)N)C(=O)NCCOCCOCCOCCOCCC(=O)NCCCC[C@H](NC(=O)NC(CCC(=O)O)C(=O)O)C(=O)O)cc2)C(C)(C)c2cc(S(=O)(=O)[O-])ccc21 (stereo partly drawn) [example 5]
Binding to PSMA in prostate cancer [7]: can bind to highly expressed PSMA in prostate cancer | Prostate cancer-specific fluorescence imaging [7]: achieving prostate cancer-specific fluorescence imaging

COCCOCCOCCN1/C(=C/C=C2\CCCC(/C=C/c3[se]c4cc(S(=O)(=O)O)ccc4[n+]3CCOCCOCCOC)=C2c2ccc(CCC(=O)N[C@@H](CCNC(=N)N)C(=O)NCCOCCOCCOCCOCCC(=O)NCCCCC3NC(=O)[C@@H](Cc4ccc(O)cc4)NC(=O)[C@H](CC(=O)O)NC(=O)CNC(=O)[C@H](CCCNC(=N)N)NC3=O)cc2)[Se]c2cc(S(=O)(=O)O)ccc21 (stereo partly drawn) [example 3]
Usability for targeted fluorescence imaging of tumors [8]: can be used for targeted fluorescence imaging of tumors | Fluorescence property compared to example 1 [6]: comparable to that in example 1
